Structures are written as SMILES. The source made the active and inactive calls. No cut-off for these calls is given here.

Data set [1] concerns the target Nicotinamide phosphoribosyltransferase (Mus musculus) (UniProt Q99KQ4). Put plainly: Binding affinity to NAMPT in mouse B16 cells assessed as increase in thermal stabilization incubated for 3 hrs followed by heating at 46 to 71 degreeC for 3 mins by CETSA assay. In kind it is cell-based. To be noted: time 183.0 min.
Data set [2] concerns LN-18. Description: Antitumor activity against human LN-18 cells assessed as inhibition of cell viability incubated for 72 hrs by SRB assay. The format is functional, cell-based. To be noted: LN-18, 72 h. A general note: The SRB assay estimates cell density from bound dye.
The test system of data set [3] is B16. Description: Induction of DNA damage in mouse B16 cells assessed as increase in gammaH2AX level at 0.1 uM incubated for 24 hrs by immunoblot analysis. The format is functional, cell-based. For orientation: A western blot detects proteins with antibodies after separation by electrophoresis.
Data set [4] has as its system CT26. Put plainly: Antitumor activity against mouse CT26 cells assessed as decrease in intracellular NAD level upto 10 uM measured for 6 hrs by absorbance based assay. In kind it is functional, cell-based.
A short description of data set [5]: Antitumor activity against […] Hepa1-6 cells assessed as inhibition of cell viability incubated for 72 hrs by SRB assay. In kind it is functional, cell-based. To be noted: Mus musculus, Hepa1-6, 72 h.
Data set [6] relates to CT26. Put plainly: Antitumor activity against mouse CT26 cells allografted in Balb/c mouse model at 2 mg/kg/day, ip for approximately 10 days. The conditions noted are these: time 10.0 day. The format is functional, organism-based.
Data set [7] relates to B16. Description: Induction of DNA damage in mouse B16 cells assessed as increase in gammaH2AX level at 1 uM incubated for 24 hrs by immunoblot analysis. In kind it is functional, cell-based.
Data set [8] deals with CT26. Put plainly: Induction of DNA damage in mouse CT26 cells assessed as increase in gammaH2AX level at 0.1 to 10 uM measured after 12 hrs by immunoblot analysis. To be noted: dose 0.1-10 µM. In kind it is functional, cell-based.
The next data set deals with MDA-MB-231. Put plainly: Antitumor activity against human MDA-MB-231 cells assessed as inhibition of cell viability at 20 to 80 uM incubated for 48 hrs by CCK8 assay. The format is functional, cell-based. The conditions noted are these: dose 20-80 µM. On the technique in general: Tetrazolium assays rely on reduction of a dye to a coloured formazan, in cell work by metabolically active cells.

Data set [9] concerns B16. Put plainly: Induction of DNA damage in mouse B16 cells assessed as increase in gammaH2AX level at 20 nM incubated for 24 hrs in presence of olaparib by immunofluorescence staining based analysis. In kind it is functional, cell-based.
Data set [10] deals with B16. Put plainly: Induction of DNA damage in mouse B16 cells assessed as increase in gammaH2AX level upto 100 nM incubated for 24 hrs in presence of NMN by immunofluorescence staining based analysis. The format is functional, cell-based.
The test system of the next data set is NCI-H1299. Put plainly: Antitumor activity against human NCI-H1299 cells assessed as inhibition of cell viability at 20 to 80 uM incubated for 48 hrs by CCK8 assay. The conditions noted are these: dose 20-80 µM. In kind it is functional, cell-based.
The subject of data set [11] is B16. Description: Antitumor activity against mouse B16 cells assessed as decrease in intracellular NAD level at 20 to 100 nM measured after 12 to 24 hrs by absorbance based assay. In kind it is functional, cell-based. To be noted: dose 20-100 nM, time 12-24 hrs.
Data set [12] is described as follows: Toxicity in C57BL/6 mouse model allografted with mouse B16 cells assessed as body weight loss at 2 mg/kg/day, ip for approximately 10 days. The format is organism-based. To be noted: in vivo, 240 h, time 10 day.
Data set [13] has as its system HepG2. Put plainly: Antitumor activity against human HepG2 cells assessed as decrease in intracellular NAD level measured for 24 hrs by absorbance based assay. The format is functional, cell-based. The conditions noted are these: dose 0.032-100 µM.
Data set [14] has as its system HepG2. Description: Antitumor activity against human HepG2 cells assessed as inhibition of cell viability at 20 to 80 uM incubated for 48 hrs by CCK8 assay. The conditions noted are these: dose 20-80 µM. The format is functional, cell-based.
In data set [15] the test system is LN-18. Put plainly: Antitumor activity against human LN-18 cells assessed as inhibition of cell viability at 6 nM incubated for 72 hrs in presence of sirtuins inhibitor by crystal violet staining based analysis. In kind it is functional.
For another data set, the system named is Calf thymus DNA. Put plainly: Binding affinity to calf thymus DNA assessed as decrease in fluorescence intensity at 100 to 200 uM by […] displacement assay. The format is nucleic-acid assay. The conditions noted are these: Bos taurus; dose 100-200 µM.
Data set [16] has as its system B16. Put plainly: Induction of DNA damage in mouse B16 cells assessed as increase in gammaH2AX level at 0.1 uM incubated for 24 hrs by immunofluorescence staining based analysis. In kind it is functional, cell-based.
The next data set deals with HCT-116. Put plainly: Antitumor activity against human HCT-116 cells assessed as inhibition of cell viability at 20 to 80 uM incubated for 48 hrs by CCK8 assay. In kind it is functional, cell-based. The conditions noted are these: dose 20-80 µM.
Data set [17] deals with B16. Description: Induction of DNA damage in mouse B16 cells assessed as increase in gammaH2AX level at 100 nM incubated for 24 hrs by immunofluorescence staining based analysis. In kind it is functional, cell-based.
The test system of data set [18] is CT26. Put plainly: Induction of DNA damage in mouse CT26 cells assessed as increase in gammaH2AX level at 0.1 to 50 uM incubated for 6 hrs by immunoblot analysis. The format is functional, cell-based. To be noted: dose 0.1-50 µM.
Data set [19] relates to CT26. Put plainly: Antitumor activity against mouse CT26 cells assessed as inhibition of cell viability incubated for 72 hrs by SRB assay. The conditions noted are these: CT26, 72 h. In kind it is functional, cell-based.
Data set [20] relates to B16. Description: Antitumor activity against mouse B16 cells assessed as decrease in intracellular NAD level at 20 nM measured after 12 to 24 hrs in presence of olaparib by absorbance based assay. The format is functional, cell-based. The conditions noted are these: time 12-24 hrs.
Data set [21] can be described thus: Toxicity in Balb/c mouse model allografted with mouse CT26 cells assessed as body weight loss at 2 mg/kg/day, ip for approximately 10 days. The format is organism-based. The conditions noted are these: in vivo, 240 h, time 10 day.
Another data set deals with A549. Put plainly: Antitumor activity against human A549 cells assessed as inhibition of cell viability at 20 to 80 uM incubated for 48 hrs by CCK8 assay. The format is functional, cell-based. To be noted: dose 20-80 µM.
Data set [22] has as its system B16. Put plainly: Induction of DNA damage in mouse B16 cells assessed as increase in gammaH2AX level at 100 nM by immunofluorescence staining based analysis. The conditions noted are these: time 2-24 hrs. In kind it is functional, cell-based.
In data set [23] the test system is B16. Put plainly: Antitumor activity against mouse B16 cells assessed as inhibition of cell viability incubated for 72 hrs by SRB assay. In kind it is functional, cell-based. The conditions noted are these: B16, 72 h.
Data set [24] addresses Nicotinamide phosphoribosyltransferase (Homo sapiens, UniProt P43490). Description: Inhibition of recombinant human NAMPT preincubated for 5 mins followed by NAM addition measured for 15 mins by fluorescence based assay.
Data set [25] has as its system CT26. Description: Induction of apoptosis in mouse CT26 cells incubated for 48 hrs by Annexin V-FITC/PI staining based flow cytometry. In kind it is functional, cell-based. The conditions noted are these: dose 10-40 nM.
Data set [26] in a line: Stability in mouse microsomes assessed as half life. The format is ADME, Microsome.
Data set [27] relates to LN-18. Description: Antitumor activity against human LN-18 cells assessed as inhibition of cell viability at 6 nM incubated for 72 hrs in presence of NNMT inhibitor by crystal violet staining based analysis. In kind it is functional.
A further data set deals with PANC-1. Put plainly: Antitumor activity against human PANC-1 cells assessed as inhibition of cell viability at 20 to 80 uM incubated for 48 hrs by CCK8 assay. The format is functional, cell-based. The conditions noted are these: dose 20-80 µM.

Nicotinamide phosphoribosyltransferase, sequence (P43490 whole entry): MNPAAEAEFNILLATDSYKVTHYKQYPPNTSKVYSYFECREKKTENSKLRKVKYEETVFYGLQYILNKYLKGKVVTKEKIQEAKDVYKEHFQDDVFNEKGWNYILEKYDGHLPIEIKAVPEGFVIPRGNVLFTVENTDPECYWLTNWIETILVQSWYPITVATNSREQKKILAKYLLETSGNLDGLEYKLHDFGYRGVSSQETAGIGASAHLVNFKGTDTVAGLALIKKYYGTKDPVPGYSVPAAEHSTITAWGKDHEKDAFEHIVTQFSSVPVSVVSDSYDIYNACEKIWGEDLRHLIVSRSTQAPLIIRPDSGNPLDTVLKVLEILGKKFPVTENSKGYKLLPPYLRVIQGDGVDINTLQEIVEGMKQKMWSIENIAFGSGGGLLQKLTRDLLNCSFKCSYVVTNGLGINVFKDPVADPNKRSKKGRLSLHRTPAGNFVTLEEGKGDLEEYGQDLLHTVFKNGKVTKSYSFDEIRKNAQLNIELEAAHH
Nicotinamide phosphoribosyltransferase (Mus musculus), sequence (Q99KQ4 whole entry, looked up): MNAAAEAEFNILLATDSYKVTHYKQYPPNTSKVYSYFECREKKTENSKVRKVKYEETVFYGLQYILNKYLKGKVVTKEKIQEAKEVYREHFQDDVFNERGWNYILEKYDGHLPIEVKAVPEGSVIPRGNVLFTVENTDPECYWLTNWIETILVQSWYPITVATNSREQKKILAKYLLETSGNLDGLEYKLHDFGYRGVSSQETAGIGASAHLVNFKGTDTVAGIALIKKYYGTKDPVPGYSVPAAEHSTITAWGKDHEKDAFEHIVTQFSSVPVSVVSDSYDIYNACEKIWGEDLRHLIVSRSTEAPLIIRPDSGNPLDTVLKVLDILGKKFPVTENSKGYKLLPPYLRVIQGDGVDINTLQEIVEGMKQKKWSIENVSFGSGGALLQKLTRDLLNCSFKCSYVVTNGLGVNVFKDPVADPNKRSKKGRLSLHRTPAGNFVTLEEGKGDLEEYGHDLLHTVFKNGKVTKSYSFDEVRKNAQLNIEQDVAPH

`O=C(/C=C/c1cccnc1)NCCCCC1CCN(C(=O)c2cccc(N(CCCl)CCCl)c2)CC1`: the result (in data set [1]; with B16 [3]; in the data set on CT26 [4]; in the data set with CT26 [6]; with B16 [7]; with CT26 [8]) was Active. Besides, the result in the data set with B16 [9], in the data set with B16 [11], with LN-18 [15], in the data set with Calf thymus DNA, in the data set on B16 [16] and with B16 [17] was Active. For the same molecule, the result in the data set on CT26 [18] and with LN-18 [27] was Active. Also, the IC50 with LN-18 [2] was 0.7 nM; in data set [5] it was 5.1 nM; in the data set with CT26 [19], 21.8 nM; with B16 [23], 52.4 nM; in data set [24], 0.15 nM. Moreover, the inhibition entry with MDA-MB-231, in the data set with NCI-H1299, in the data set with HepG2 [14], in the data set on HCT-116, in the data set with A549 and with PANC-1 was “Active” each time. The result with B16 [10] and with B16 [20] was inactive. The Activity result was “Non-Toxic” in data set [12]; “Dose-Dependent Effect” with HepG2 [13]; “Non-Toxic” in data set [21]; “Dose-Dependent Effect” in the data set on B16 [22]; “Dose-Dependent Effect” with CT26 [25]. Also, the half-life in [26] was 0.935 min.
In the case of `O=C(/C=C/c1cccnc1)OCCCCC1CCN(C(=O)c2ccc(N(CCCl)CCCl)cc2)CC1`, the 50% inhibitory concentration (IC50) in [24] was determined as 37.5 nM.
On the same count and under the same terms, under `O=C(/C=C/c1cccnc1)NCCCCC1CCN(C(=O)c2ccc(N(CCCl)CCCl)cc2)CC1` stands 1.1 nM.
With `O=C(O)CCCc1ccc(N(CCCl)CCCl)cc1` [CHLORAMBUCIL], the IC50 (in the data set with LN-18 [2]; in data set [5]; in the data set on CT26 [19]; with B16 [23]) was above 1000 nM throughout.
In the case of `O=C(/C=C/c1cccnc1)OCCCCC1CCN(C(=O)c2ccccc2N(CCCl)CCCl)CC1`, the IC50 in data set [24] worked out at 1.3 nM.
Same read-out and setting: under `O=C(/C=C/c1cccnc1)OCCCCC1CCN(C(=O)c2cccc(N(CCCl)CCCl)c2)CC1` stands 3.9 nM.
In the case of `O=C(/C=C/c1cccnc1)NCCCCC1CCN(C(=O)c2ccccc2N(CCCl)CCCl)CC1`, the IC50 turned out to be 31.3 nM in the data set with LN-18 [2]; 51.6 nM in data set [5]; 53.8 nM in the data set with CT26 [19]; 72.5 nM in the data set with B16 [23]; 0.16 nM in [24]. For the same molecule, the outcome in the data set on CT26 [8] was Active.
As for `O=C(/C=C/c1cccnc1)NCCCCC1CCN(C(=O)c2ccccc2)CC1` [DAPORINAD], the IC50 was determined as 33.6 nM in the data set on LN-18 [2], 33.6 nM in [5], 34.9 nM with CT26 [19] and 219 nM in the data set on B16 [23]. In addition, the result in the data set on CT26 [4] and with CT26 [18] was Active.

As usually defined, the IC50 is the point on the concentration scale where inhibition reaches its midpoint. As a reminder, the half-life is how long it takes for the measured level to halve.

The values are drawn from ChEMBL document CHEMBL5356961 (J Med Chem, 2023).
